{"source": "patent US8445528B2", "about": "“Dendrimer conjugates” (priority 2008, dated 2013)", "origin": "cited, not measured here", "conditions": "more cytotoxic than IRINOTECAN", "data": [{"molecule": "CC[C@@]1(O)C(=O)OCc2c1cc1n(c2=O)Cc2cc3cc(O)ccc3nc2-1", "note": "[SN-38, 10-hydroxycamptothecin]", "values": [{"measurement": "cytotoxicity relative to IRINOTECAN", "value": 1000, "unit": "fold"}]}]}
